Structures can show the parent of a compound that is named as a salt.

Usually EC50 stands for the concentration giving half of the maximal effect.

The assay deals with NQO1 specific enzyme activity in BEAS-2B cells. As to the kind of experiment: BEAS-2B NQO1 MTT assay. The class given is cell-based. As to conditions: Homo sapiens, BEAS-2B, 48 h, BEAS-2B cells, 48 hours with compound, MTT readout; read-out: EC50 of NQO1 specific activity induction. A digest of the protocol: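 BEAS-2B cells treated with compound 48 h at 37° C, 5% CO2, then lysed; NQO1 activity in lysate measured kinetically by MTT cocktail at Absorbance 570 nm over 30 min. EC50 for induction from Delta OD/min versus log concentration, 3-parameter fit; Cell Titer Glo run on lysate aliquot.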
Background: Tetrazolium assays rely on reduction of a dye to a coloured formazan, in cell work by metabolically active cells.
Take `CC[C@@H]1CN(Cc2cc(C(CCc3cn(CC)nn3)C(C)(C)C(=O)O)ccc2C)Cc2cccnc2O1` (stereo partly drawn) [Example 217, 5-(1-Ethyl-1H-1,2,3-triazol-4-yl)-3-(3-(((R)-2-ethyl-2,3-dihydropyrido[3,2-f][1,4]oxazepin-4(5H)-yl)methyl)-4-methylphenyl)-2,2-dimethylpentanoic Acid]: the half-maximal effective concentration (EC50) lay in the range of 10 to 100 nM.

For `CC[C@@H]1CN(Cc2cc([C@@H](c3ccc4c(nnn4C)c3C)C(C)(C)C(=O)O)ccc2C)Cc2ncccc2O1` [Example 218, (S)-3-(1,4-Dimethyl-1H-benzo[d][1,2,3]triazol-5-yl)-3-(3-(((R)-2-ethyl-2,3-dihydropyrido[2,3-f][1,4]oxazepin-4(5H)-yl)methyl)-4-methylphenyl)-2,2-dimethylpropanoic Acid, Trifluoroacetate], the EC50 fell in the range of 1 to 10 nM.

For `CC[C@@H]1CN(Cc2cc([C@@H](c3ccc4c(nnn4C)c3C)C(C)(C)C(=O)O)ccc2C)Cc2ccncc2O1` [Example 219, (S)-3-(1,4-Dimethyl-1H-benzo[d][1,2,3]triazol-5-yl)-3-(3-(((R)-2-ethyl-2,3-dihydropyrido[4,3-f][1,4]oxazepin-4(5H)-yl)methyl)-4-methylphenyl)-2,2-dimethylpropanoic Acid, Trifluoroacetate], the EC50 fell in the range of 1 to 10 nM.

With `CC[C@@H]1CN(Cc2cc(C(CCc3cn(CC)nn3)C(C)(C)C(=O)O)ccc2C)Cc2ccncc2O1` (stereo partly drawn) [Example 220, 5-(1-Ethyl-1H-1,2,3-triazol-4-yl)-3-(3-(((R)-2-ethyl-2,3-dihydropyrido[4,3-f][1,4]oxazepin-4(5H)-yl)methyl)-4-methylphenyl)-2,2-dimethylpentanoic Acid, 3.2 Trifluoroacetic Acid Salt], the EC50 fell in the range of 10 to 100 nM.

For `CCn1cc(CCC(c2ccc(C)c(CN3Cc4ncccc4OC(C)(C)C3)c2)C(C)(C)C(=O)O)nn1` (stereo not drawn) [Example 221, 3-(3-((2,2-Dimethyl-2,3-dihydropyrido[2,3-f][1,4]oxazepin-4(5H)-yl)methyl)-4-methylphenyl)-5-(1-ethyl-1H-1,2,3-triazol-4-yl)-2,2-dimethylpentanoic Acid], the concentration for a half-maximal effect (EC50) was in the range of 10 to 100 nM.

For the molecule `CC[C@@H]1CN(Cc2cc([C@@H](c3ccc4c(nnn4C)c3C)C(C)(C)C(=O)O)ccc2C)Cc2c(ccnc2F)O1` [Example 222, (S)-3-(1,4-Dimethyl-1H-benzo[d][1,2,3]triazol-5-yl)-3-(3-(((R)-2-ethyl-6-fluoro-2,3-dihydropyrido[3,4-f][1,4]oxazepin-4(5H)-yl)methyl)-4-methylphenyl)-2,2-dimethylpropanoic Acid], the EC50 was below 1 nM.

Turning to `CCn1cc(CCC(c2ccc(C)c(CN3Cc4cccnc4OC(C)(C)C3)c2)C(C)(C)C(=O)O)nn1` (stereo not drawn) [Example 223, 3-(3-((2,2-Dimethyl-2,3-dihydropyrido[3,2-f][1,4]oxazepin-4(5H)-yl)methyl)-4-methylphenyl)-5-(1-ethyl-1H-1,2,3-triazol-4-yl)-2,2-dimethylpentanoic Acid], the EC50 lay in the range of 1 to 10 nM.

On to `CC[C@@H]1CN(Cc2cc(C(CCc3cn(CC)nn3)C(C)C(=O)O)ccc2C)Cc2ncccc2O1` (stereo partly drawn) [Example 224, 5-(1-Ethyl-1H-1,2,3-triazol-4-yl)-3-(3-(((R)-2-ethyl-2,3-dihydropyrido[2,3-f][1,4]oxazepin-4(5H)-yl)methyl)-4-methylphenyl)-2-methylpentanoic Acid, 0.20 Formic Acid Salt], for which the 50% effective concentration (EC50) was in the range of 100 to 1000 nM.

Take `CCC1CCN(Cc2nccn2Cc2cc(C(CCc3cn(CC)nn3)C(C)(C)C(=O)O)ccc2Cl)CC1` (stereo not drawn) [Example 230, 3-(4-Chloro-3-((2-((4-ethylpiperidin-1-yl)methyl)-1H-imidazol-1-yl)methyl)phenyl)-5-(1-ethyl-1H-1,2,3-triazol-4-yl)-2,2-dimethylpentanoic Acid]: the EC50 fell in the range of 1 to 10 nM.

For the molecule `CC[C@@H]1CN(Cc2cc(C(CCc3cn(CC)nn3)CC(=O)O)ccc2Cl)Cc2ncccc2O1` (stereo partly drawn) [Example 231, 3-(4-Chloro-3-(((R)-2-ethyl-2,3-dihydropyrido[2,3-f][1,4]oxazepin-4(5H)-yl)methyl)phenyl)-5-(1-ethyl-1H-1,2,3-triazol-4-yl)pentanoic Acid], the concentration for a half-maximal effect (EC50) was 100 to 1000 nM.

Turning to `CC[C@@H]1CN(Cc2cc(C(CCc3cn(CC)nn3)CC(=O)O)ccc2C)Cc2cnccc2O1` (stereo partly drawn) [Example 232, 5-(1-Ethyl-1H-1,2,3-triazol-4-yl)-3-(3-(((R)-2-ethyl-2,3-dihydropyrido[3,4-f][1,4]oxazepin-4(5H)-yl)methyl)-4-methylphenyl)pentanoic Acid], the EC50 fell in the range of 100 to 1000 nM.

For `CCn1cc(CCC(CC(=O)O)c2ccc(Cl)c(CN3Cc4cccnc4OC(C)(C)C3)c2)nn1` (stereo not drawn) [Example 233, 3-(4-Chloro-3-((2,2-dimethyl-2,3-dihydropyrido[3,2-f][1,4]oxazepin-4(5H)-yl)methyl)phenyl)-5-(1-ethyl-1H-1,2,3-triazol-4-yl)pentanoic Acid], the EC50 was in the range of 1000 to 10000 nM.

As to `CC[C@@H]1CN(Cc2cc(C(CCc3cn(CC)nn3)CC(=O)NS(C)(=O)=O)ccc2C)Cc2cnccc2O1` (stereo partly drawn) [Example 234, 5-(1-Ethyl-1H-1,2,3-triazol-4-yl)-3-(3-(((R)-2-ethyl-2,3-dihydropyrido[3,4-f][1,4]oxazepin-4(5H)-yl)methyl)-4-methylphenyl)-N-(methylsulfonyl)pentanamide], the 50% effective concentration (EC50) was 1000 to 10000 nM.

For `Cc1ccc([C@@H](c2ccc3c(nnn3C)c2C)C(C)(C)C(=O)O)cc1Cn1ccnc1CC1CCCCCC1` [Example 235, (S)-3-(3-((2-(Cycloheptylmethyl)-1H-imidazol-1-yl)methyl)-4-methylphenyl)-3-(1,4-dimethyl-1H-benzo[d][1,2,3]triazol-5-yl)-2,2-dimethylpropanoic Acid], the 50% effective concentration (EC50) is below 1 nM.

Consider `CCC1CCN(Cc2nccn2Cc2cc(C(c3ccc4c(nnn4C)c3C)C(C)(C)C(=O)O)ccc2Cl)CC1` (stereo not drawn) [Example 236, 3-(4-Chloro-3-((2-((4-ethylpiperidin-1-yl)methyl)-1H-imidazol-1-yl)methyl)phenyl)-3-(1,4-dimethyl-1H-benzo[d][1,2,3]triazol-5-yl)-2,2-dimethylpropanoic Acid], for which the EC50 was below 1 nM.

On to `CCC1CCN(Cc2nccn2Cc2cc([C@@H](c3ccc4c(nnn4C)c3C)C(C)(C)C(=O)O)ccc2Cl)CC1` [Example 237, (S)-3-(4-Chloro-3-((2-((4-ethylpiperidin-1-yl)methyl)-1H-imidazol-1-yl)methyl)phenyl)-3-(1,4-dimethyl-1H-benzo[d][1,2,3]triazol-5-yl)-2,2-dimethylpropanoic Acid], for which the EC50 was below 1 nM.

In the case of `CCC1CCN(Cc2nccn2Cc2cc([C@H](c3ccc4c(nnn4C)c3C)C(C)(C)C(=O)O)ccc2Cl)CC1` [Example 238, (R)-3-(4-Chloro-3-((2-((4-ethylpiperidin-1-yl)methyl)-1H-imidazol-1-yl)methyl)phenyl)-3-(1,4-dimethyl-1H-benzo[d][1,2,3]triazol-5-yl)-2,2-dimethylpropanoic Acid], the 50% effective concentration (EC50) is 1 to 10 nM.

As to `CCC1CCN(Cc2nccn2Cc2cc([C@@H](c3ccc4c(nnn4CC)c3C)C(C)(C)C(=O)O)ccc2C)CC1` [Example 239, (S)-3-(1-Ethyl-4-methyl-1H-benzo[d][1,2,3]triazol-5-yl)-3-(3-((2-((4-ethylpiperidin-1-yl)methyl)-1H-imidazol-1-yl)methyl)-4-methylphenyl)-2,2-dimethylpropanoic Acid], the concentration for a half-maximal effect (EC50) was below 1 nM.

Source of the values: patent US10604509B2, “Nrf2 regulators” (GlaxoSmithKline Intellectual Property Development Limited, priority 2015, dated 2020).
